In BindingDB's records for doi:10.1021/jm960581w (Sphinx Laboratories, 1996):

Molecular target: cAMP-dependent protein kinase catalytic subunit alpha (Bos taurus, UniProt P00517)
Experiment: PKA assay
Procedure: The activity of PKA, activated by cAMP, is measured by its ability to transfer phosphate from [gamma-32P]ATP to histone.

Row | IC50 [µM] | Compound
1 | > 50 | O=C(O[C@@H]1CCC[C@H]1Oc1ccc(O)cc1)c1cc(O)c(C(=O)c2c(O)cccc2C(=O)O)c(O)c1 (racemic) [2-{[2,6-dihydroxy-4-({[(1R,2R)-2-(4-hydroxyphenoxy)cyclopentyl]oxy}carbonyl)phenyl]carbonyl}-3-hydroxybenzoic acid]
2 | > 50 | O=C(O[C@@H]1CCC[C@H]1Cc1ccc(O)cc1)c1cc(O)c(C(=O)c2c(O)cccc2C(=O)O)c(O)c1 (racemic) [2-{[2,6-dihydroxy-4-({[(1R,2S)-2-[(4-hydroxyphenyl)methyl]cyclopentyl]oxy}carbonyl)phenyl]carbonyl}-3-hydroxybenzoic acid]
3 | > 50 | O=C(OCC(Cc1ccc(O)cc1)NS(=O)(=O)c1ccccc1)c1cc(O)c(C(=O)c2c(O)cccc2C(=O)O)c(O)c1 (racemic) [(+-)-2-[[2,6-Dihydroxy-4-[[[3-(4-hydroxyphenyl)-2-[(phenylsulfonyl)amino]propyl]oxy]carbonyl]phenyl]carbonyl]-3-hydroxybenzoic Acid]
4 | > 50 | O=C(OC[C@H](Cc1ccc(O)cc1)NS(=O)(=O)c1ccccc1)c1cc(O)c(C(=O)c2c(O)cccc2C(=O)O)c(O)c1 [2-[(4-{[(2S)-2-benzenesulfonamido-3-(4-hydroxyphenyl)propoxy]carbonyl}-2,6-dihydroxyphenyl)carbonyl]-3-hydroxybenzoic acid]
5 | > 50 | O=C(OCCCc1ccc(O)cc1)c1cc(O)c(C(=O)c2c(O)cccc2C(=O)O)c(O)c1 [2-[[2,6-Dihydroxy-4-[[[3-(4-hydroxyphenyl)propyl]oxy]carbonyl]phenyl]carbonyl]-3-hydroxybenzoic Acid]
6 | > 50 | O=C(O[C@@H]1CCC[C@@H]1Cc1ccc(O)cc1)c1cc(O)c(C(=O)c2c(O)cccc2C(=O)O)c(O)c1 [2-{[2,6-dihydroxy-4-({[(1R,2R)-2-[(4-hydroxyphenyl)methyl]cyclopentyl]oxy}carbonyl)phenyl]carbonyl}-3-hydroxybenzoic acid]
7 | > 50 | COC(=O)c1cccc(O)c1C(=O)c1c(O)cc(C(=O)O[C@@H]2CCC[C@H]2Cc2ccc(O)cc2)cc1O [(1R,2S)-2-[(4-hydroxyphenyl)methyl]cyclopentyl 3,5-dihydroxy-4-{[2-hydroxy-6-(methoxycarbonyl)phenyl]carbonyl}benzoate]
8 | > 50 | CC(CCc1ccc(O)cc1)OC(=O)c1cc(O)c(C(=O)c2c(O)cccc2C(=O)O)c(O)c1 (stereo not drawn) [(+-)-2-[[2,6-Dihydroxy-4-[[[3-(4-hydroxyphenyl)-1-methylpropyl]oxy]carbonyl]phenyl]carbonyl]-3-hydroxybenzoic Acid]
9 | > 50 | O=C(OCC(Cc1ccc(O)cc1)NS(=O)(=O)c1ccc2ccccc2c1)c1cc(O)c(C(=O)c2c(O)cccc2C(=O)O)c(O)c1 (stereo not drawn) [(+-)-2-[[2,6-Dihydroxy-4-[[[3-(4-hydroxyphenyl)-2-[(naphthylsulfonyl)amino]propyl]oxy]carbonyl]phenyl]carbonyl]-3-hydroxybenzoic Acid]
10 | > 50 | O=C(NC(COC(=O)c1cc(O)c(C(=O)c2c(O)cccc2C(=O)O)c(O)c1)Cc1ccc(O)cc1)c1ccc(O)cc1 (stereo not drawn) [(+-)-2-[[2,6-Dihydroxy-4-[[[3-(4-hydroxyphenyl)-2-[[(4-hydroxyphenyl)carbonyl]amino]propyl]oxy]carbonyl]phenyl]carbonyl]-3-hydroxybenzoic Acid]

More lines, now with the values behind:

Row | Compound | IC50 [µM]
11 | O=C(NC(COC(=O)c1cc(O)c(C(=O)c2c(O)cccc2C(=O)O)c(O)c1)Cc1ccc(O)cc1)c1ccccc1 (racemic) [2-[(2,6-dihydroxy-4-{[3-(4-hydroxyphenyl)-2-(phenylformamido)propoxy]carbonyl}phenyl)carbonyl]-3-hydroxybenzoic acid] | > 50
12 | CN(C)C(COC(=O)c1cc(O)c(C(=O)c2c(O)cccc2C(=O)O)c(O)c1)Cc1ccc(O)cc1 (racemic) [2-[(4-{[2-(dimethylamino)-3-(4-hydroxyphenyl)propoxy]carbonyl}-2,6-dihydroxyphenyl)carbonyl]-3-hydroxybenzoic acid] | > 50
13 | O=C(OCC(NS(=O)(=O)c1ccccc1)c1ccc(O)cc1)c1cc(O)c(C(=O)c2c(O)cccc2C(=O)O)c(O)c1 (racemic) [2-[(4-{[2-benzenesulfonamido-2-(4-hydroxyphenyl)ethoxy]carbonyl}-2,6-dihydroxyphenyl)carbonyl]-3-hydroxybenzoic acid] | > 50
14 | O=C(OCC(COc1ccc(O)cc1)NS(=O)(=O)c1ccccc1)c1cc(O)c(C(=O)c2c(O)cccc2C(=O)O)c(O)c1 (racemic) [2-[(4-{[2-benzenesulfonamido-3-(4-hydroxyphenoxy)propoxy]carbonyl}-2,6-dihydroxyphenyl)carbonyl]-3-hydroxybenzoic acid] | > 50
15 | CS(=O)(=O)NC(COC(=O)c1cc(O)c(C(=O)c2c(O)cccc2C(=O)O)c(O)c1)Cc1ccc(O)cc1 (racemic) [(+-)-2-[[2,6-Dihydroxy-4-[[[3-(4-hydroxyphenyl)-2-[(methylsulfonyl)amino]propyl]oxy]carbonyl]phenyl]carbonyl]-3-hydroxybenzoic Acid] | > 50
16 | O=C(OCCCCc1ccc(O)cc1)c1cc(O)c(C(=O)c2c(O)cccc2C(=O)O)c(O)c1 [2-[(2,6-dihydroxy-4-{[4-(4-hydroxyphenyl)butoxy]carbonyl}phenyl)carbonyl]-3-hydroxybenzoic acid] | > 50
17 | O=C(OC[C@@H](Cc1ccc(O)cc1)NS(=O)(=O)c1ccccc1)c1cc(O)c(C(=O)c2c(O)cccc2C(=O)O)c(O)c1 [2-[(4-{[(2R)-2-benzenesulfonamido-3-(4-hydroxyphenyl)propoxy]carbonyl}-2,6-dihydroxyphenyl)carbonyl]-3-hydroxybenzoic acid] | > 50
18 | Cc1ccc(S(=O)(=O)N2CCC[C@@H](OC(=O)c3cc(O)c(C(=O)c4c(O)cccc4C(=O)O)c(O)c3)[C@H](NC(=O)c3ccc(O)cc3)C2)cc1 [2-{[2,6-dihydroxy-4-({[(3R,4R)-3-[(4-hydroxybenzene)amido]-1-[(4-methylbenzene)sulfonyl]azepan-4-yl]oxy}carbonyl)phenyl]carbonyl}-3-hydroxybenzoic acid] | > 150
19 | COC(=O)c1cccc(O)c1C(=O)c1c(O)cc(C(=O)OC[C@H](Cc2ccc(O)cc2)NS(=O)(=O)c2ccccc2)cc1O [(S)-Methyl 2-[[2,6-Dihydroxy-4-[[[3-(4-hydroxyphenyl)-2-[(phenylsulfonyl)amino]propyl]oxy]carbonyl]phenyl]carbonyl]-3-hydroxybenzoate] | > 50
